From patent US20240199635A1, “TETRAHYDROTHIENO PYRIDINE DERIVATIVES AS DDRS INHIBITORS” (CHIESI FARMACEUTICI S.P.A., priority 2021, published 2024)

Experiments:
DDR1 [1] = target: T1, DDR1 (Homo sapiens (Human), UniProt Q08345); assay: DDR1 binding assay (LanthaScreen Europium Kinase Binding assay); settings: potency class, read-out: Ki DDR1
Protocol: (§1) DDR1 and DDR2 binding assays were performed using Life Technologies LanthaScreen™ Europium Kinase Binding assay. The compounds were incubated with 5 nM DDR1 (Carna Biosciences) or 5 nM DDR2 (Life Technologies) for 1 hour at room temperature in white 384-well OptiPlate (PerkinElmer), containing 20 nM or 10 nM Kinase Tracer 178 respectively and 2 nM Europium labelled anti-GST antibody (Life Technologies) in assay buffer (50 mM HEPES pH 7.5, 10 mM MgCl2, 1 mM EGTA and 0.01% BRIJ35).
(§2) The ratio of fluorescence emission 665 nm/615 nm after excitation at 340 nm was obtained using the Tecan Spark 20M plate reader. IC50 values were determined in GraphPad Prism 7.0 software, using 4 parameter model: log(inhibitor) vs. response. IC50 values were converted in Ki using the Cheng-Prusoff equation (Ki=IC50/(1+[Tracer]/Kd).

DDR1 [2] = target: T1, DDR1; assay: DDR1 cell based assay (PathHunter U2OS DDR1 assay); settings: U2OS-DDR1 cells, Type II Collagen stimulation, potency class
Protocol: The inhibition of DDR1 receptor activation by compounds was evaluated by PathHunter® U2OS DDR1 assay (Eurofins DiscoverX), according to the manufacturer's instructions. Briefly, U2OS-DDR1 cells were seeded in white 384-well plates at a density of 5000 cells/well and incubated for 2 hours at 37° C. and 5% CO2. Cells were then treated with compounds at different concentrations and incubated for 30 minutes, before stimulation with bovine Type II Collagen 20 μg/ml and incubation overnight at 37° C. and 5% CO2. PathHunter Detection Reagents were prepared according to the protocol provided by DiscoverX and 20 μl/well of this mix were added to each well. After incubating the plates for 1 hour at room temperature in the dark, luminescence signal was acquired with a plate reader. Raw data were normalized to vehicle control (0% for normalization) and positive control (100% for normalization; cells treated with 20 μg/ml collagen II) and IC50 parameters were calculated in GraphPad Prism 8.0 software, using sigmoidal dose-response curve fitting with variable slope.

DDR2 = DDR2 (Homo sapiens (Human), UniProt Q16832); assay: DDR2 binding assay (LanthaScreen Europium Kinase Binding assay); settings: potency class, read-out: Ki DDR2
Protocol: as §1, §2

Chain of DDR2 (Q16832 22-855): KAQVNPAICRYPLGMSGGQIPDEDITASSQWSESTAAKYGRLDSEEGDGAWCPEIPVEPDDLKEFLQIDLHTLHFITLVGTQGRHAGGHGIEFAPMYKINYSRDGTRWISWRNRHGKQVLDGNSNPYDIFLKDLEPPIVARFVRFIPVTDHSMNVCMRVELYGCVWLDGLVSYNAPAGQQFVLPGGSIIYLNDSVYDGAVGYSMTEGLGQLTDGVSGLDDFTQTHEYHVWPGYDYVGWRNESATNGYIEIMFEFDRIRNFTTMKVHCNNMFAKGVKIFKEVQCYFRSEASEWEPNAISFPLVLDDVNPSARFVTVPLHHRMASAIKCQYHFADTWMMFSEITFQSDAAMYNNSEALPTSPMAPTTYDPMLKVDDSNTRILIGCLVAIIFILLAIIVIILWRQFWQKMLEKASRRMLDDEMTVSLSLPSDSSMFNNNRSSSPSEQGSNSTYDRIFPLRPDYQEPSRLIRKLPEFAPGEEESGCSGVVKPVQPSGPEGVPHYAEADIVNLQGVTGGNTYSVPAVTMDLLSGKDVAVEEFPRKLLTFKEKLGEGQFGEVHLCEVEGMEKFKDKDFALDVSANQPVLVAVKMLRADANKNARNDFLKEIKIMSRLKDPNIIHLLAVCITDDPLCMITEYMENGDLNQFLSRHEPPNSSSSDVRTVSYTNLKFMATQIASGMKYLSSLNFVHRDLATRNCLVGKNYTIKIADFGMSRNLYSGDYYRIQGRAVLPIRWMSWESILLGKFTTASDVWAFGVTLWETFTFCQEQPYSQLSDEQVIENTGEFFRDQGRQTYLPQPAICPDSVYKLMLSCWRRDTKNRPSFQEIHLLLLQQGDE
T1 sequence (Q08345 19-913): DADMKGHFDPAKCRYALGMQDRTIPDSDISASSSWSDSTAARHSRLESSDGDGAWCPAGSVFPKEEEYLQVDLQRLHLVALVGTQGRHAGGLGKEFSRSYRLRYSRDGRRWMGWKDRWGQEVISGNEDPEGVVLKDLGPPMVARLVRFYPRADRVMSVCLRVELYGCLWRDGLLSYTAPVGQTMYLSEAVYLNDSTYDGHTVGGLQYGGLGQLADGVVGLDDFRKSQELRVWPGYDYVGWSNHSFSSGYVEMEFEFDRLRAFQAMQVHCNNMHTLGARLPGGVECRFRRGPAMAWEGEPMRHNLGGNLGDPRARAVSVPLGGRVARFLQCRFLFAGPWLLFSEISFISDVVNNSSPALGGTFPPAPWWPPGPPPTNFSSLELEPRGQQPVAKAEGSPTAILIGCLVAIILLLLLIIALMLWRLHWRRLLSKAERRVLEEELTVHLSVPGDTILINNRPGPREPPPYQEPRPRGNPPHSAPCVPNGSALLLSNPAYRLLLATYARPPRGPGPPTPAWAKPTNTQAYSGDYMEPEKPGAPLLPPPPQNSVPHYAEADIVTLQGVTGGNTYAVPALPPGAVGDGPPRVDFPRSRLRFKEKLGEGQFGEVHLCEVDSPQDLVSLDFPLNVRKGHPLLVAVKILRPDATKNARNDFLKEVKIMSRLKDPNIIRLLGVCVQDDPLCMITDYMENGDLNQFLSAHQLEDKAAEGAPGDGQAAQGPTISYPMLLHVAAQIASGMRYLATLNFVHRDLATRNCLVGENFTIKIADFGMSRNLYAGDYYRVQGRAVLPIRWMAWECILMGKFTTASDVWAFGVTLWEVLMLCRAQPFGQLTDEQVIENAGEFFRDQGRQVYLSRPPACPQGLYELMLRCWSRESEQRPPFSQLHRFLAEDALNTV

## O=C(Nc1cccc(C(F)(F)F)c1)c1csc2c1CCN(Cc1cncc(F)c1)C2 [Example 24, 6-((5-fluoropyridin-3-yl)methyl)-N-(3-(trifluoromethyl)phenyl)-4,5,6,7-tetrahydrothieno[2,3-c]pyridine-3-carboxamide]
DDR1 [1]
  Ki: < 25 nM
DDR1 [2]
  IC50: 25 to 50 nM
DDR2
  Ki: < 25 nM

## O=C(Nc1cccc(C(F)(F)F)c1)c1csc2c1CCN(Cc1cccnc1)C2 [Example 25, 6-(pyridin-3-ylmethyl)-N-(3-(trifluoromethyl)phenyl)-4,5,6,7-tetrahydrothieno[2,3-c]pyridine-3-carboxamide]
DDR1 [1]
  Ki: < 25 nM
DDR1 [2]
  IC50: 25 to 50 nM
DDR2
  Ki: < 25 nM

## Cn1nc(C(C)(C)C)cc1NC(=O)c1csc2c1CCN(Cc1cnc(N)nc1)C2 [Example 26, 6-((2-aminopyrimidin-5-yl)methyl)-N-(3-(tert-butyl)-1-methyl-1H-pyrazol-5-yl)-4,5,6,7-tetrahydrothieno[2,3-c]pyridine-3-carboxamide]
DDR1 [1]
  Ki: < 25 nM
DDR1 [2]
  IC50: 25 to 50 nM
DDR2
  Ki: 25 to 50 nM

## Nc1nccnc1CN1CCc2c(C(=O)Nc3cccc(C(F)(F)F)c3)csc2C1 [Example 27, 6-((3-aminopyrazin-2-yl)methyl)-N-(3-(trifluoromethyl)phenyl)-4,5,6,7-tetrahydrothieno[2,3-c]pyridine-3-carboxamide]
DDR1 [1]
  Ki: < 25 nM
DDR1 [2]
  IC50: < 25 nM
DDR2
  Ki: < 25 nM

## Nc1ncc(CN2CCc3c(C(=O)Nc4cccc(C(F)(F)F)c4)csc3C2)cn1 [Example 28, 6-((2-aminopyrimidin-5-yl)methyl)-N-(3-(trifluoromethyl)phenyl)-4,5,6,7-tetrahydrothieno[2,3-c]pyridine-3-carboxamide]
DDR1 [1]
  Ki: < 25 nM
DDR1 [2]
  IC50: < 25 nM
DDR2
  Ki: < 25 nM

## CN1CCN(c2cncc(CN3CCc4c(C(=O)Nc5cccc(C(F)(F)F)c5)csc4C3)c2)CC1=O [Example 29, 6-((5-(4-methyl-3-oxopiperazin-1-yl)pyridin-3-yl)methyl)-N-(3-(trifluoromethyl)phenyl)-4,5,6,7-tetrahydrothieno[2,3-c]pyridine-3-carboxamide]
DDR1 [1]
  Ki: < 25 nM
DDR1 [2]
  IC50: 50 to 80 nM
DDR2
  Ki: < 25 nM

## O=C(Nc1cccc(C(F)(F)F)c1)c1csc2c1CCN(Cc1cncc(N3CCS(=O)(=O)CC3)c1)C2 [Example 30, 6-((5-(1,1-dioxidothiomorpholino)pyridin-3-yl)methyl)-N-(3-(trifluoromethyl)phenyl)-4,5,6,7-tetrahydrothieno[2,3-c]pyridine-3-carboxamide]
DDR1 [1]
  Ki: < 25 nM
DDR1 [2]
  IC50: 50 to 80 nM
DDR2
  Ki: < 25 nM

## COc1cncc(CN2CCc3c(C(=O)Nc4cncc(C(F)(F)F)c4)csc3C2)c1 [Example 32, 6-((5-methoxypyridin-3-yl)methyl)-N-(5-(trifluoromethyl)pyridin-3-yl)-4,5,6,7-tetrahydrothieno[2,3-c]pyridine-3-carboxamide]
DDR1 [1]
  Ki: < 25 nM
DDR1 [2]
  IC50: < 25 nM
DDR2
  Ki: < 25 nM

## O=C(Nc1cncc(C(F)(F)F)c1)c1csc2c1CCN(Cc1cncc(F)c1)C2 [Example 33, 6-((5-fluoropyridin-3-yl)methyl)-N-(5-(trifluoromethyl)pyridin-3-yl)-4,5,6,7-tetrahydrothieno[2,3-c]pyridine-3-carboxamide]
DDR1 [1]
  Ki: < 25 nM
DDR1 [2]
  IC50: 25 to 50 nM
DDR2
  Ki: < 25 nM

## O=C(Nc1cncc(C(F)(F)F)c1)c1csc2c1CCN(Cc1cccnc1)C2 [Example 34, 6-(pyridin-3-ylmethyl)-N-(5-(trifluoromethyl)pyridin-3-yl)-4,5,6,7-tetrahydrothieno[2,3-c]pyridine-3-carboxamide]
DDR1 [1]
  Ki: < 25 nM
DDR1 [2]
  IC50: 25 to 50 nM
DDR2
  Ki: < 25 nM

## Nc1ncc(CN2CCc3c(C(=O)Nc4cncc(C(F)(F)F)c4)csc3C2)cn1 [Example 35, 6-((2-aminopyrimidin-5-yl)methyl)-N-(5-(trifluoromethyl)pyridin-3-yl)-4,5,6,7-tetrahydrothieno[2,3-c]pyridine-3-carboxamide]
DDR1 [1]
  Ki: < 25 nM
DDR1 [2]
  IC50: 50 to 80 nM
DDR2
  Ki: 25 to 50 nM

## Nc1nccnc1CN1CCc2c(C(=O)Nc3cncc(C(F)(F)F)c3)csc2C1 [Example 36, 6-((3-aminopyrazin-2-yl)methyl)-N-(5-(trifluoromethyl)pyridin-3-yl)-4,5,6,7-tetrahydrothieno[2,3-c]pyridine-3-carboxamide]
DDR1 [1]
  Ki: < 25 nM
DDR1 [2]
  IC50: < 25 nM
DDR2
  Ki: < 25 nM

## O=C(Nc1cc(F)cc(C(F)(F)F)c1)c1csc2c1CCN(Cc1cnc(NC3COC3)nc1)C2 [Example 37, N-[3-fluoro-5-(trifluoromethyl)phenyl]-6-[[2-(oxetan-3-ylamino)pyrimidin-5-yl]methyl]-5,7-dihydro-4H-thieno[2,3-c]pyridine-3-carboxamide]
DDR1 [1]
  Ki: < 25 nM
DDR1 [2]
  IC50: 25 to 50 nM
DDR2
  Ki: < 25 nM

## CNc1ncc(CN2CCc3c(C(=O)Nc4cc(F)cc(C(F)(F)F)c4)csc3C2)cn1 [Example 40, N-(3-fluoro-5-(trifluoromethyl)phenyl)-6-((2-(methylamino)pyrimidin-5-yl)methyl)-4,5,6,7-tetrahydrothieno[2,3-c]pyridine-3-carboxamide]
DDR1 [1]
  Ki: < 25 nM
DDR1 [2]
  IC50: < 25 nM
DDR2
  Ki: < 25 nM

## COCCNc1ncc(CN2CCc3c(C(=O)Nc4cc(F)cc(C(F)(F)F)c4)csc3C2)cn1 [Example 41, N-(3-fluoro-5-(trifluoromethyl)phenyl)-6-((2-((2-methoxyethyl)amino)pyrimidin-5-yl)methyl)-4,5,6,7-tetrahydrothieno[2,3-c]pyridine-3-carboxamide]
DDR1 [1]
  Ki: < 25 nM
DDR1 [2]
  IC50: 50 to 80 nM
DDR2
  Ki: < 25 nM

## Nc1ncccc1CN1CCc2c(C(=O)Nc3cc(F)cc(C(F)(F)F)c3)csc2C1 [Example 43, 6-((2-aminopyridin-3-yl)methyl)-N-(3-fluoro-5-(trifluoromethyl)phenyl)-4,5,6,7-tetrahydrothieno[2,3-c]pyridine-3-carboxamide]
DDR1 [1]
  Ki: < 25 nM
DDR1 [2]
  IC50: < 25 nM
DDR2
  Ki: < 25 nM

## O=C(Nc1cc(F)cc(C(F)(F)F)c1)c1csc2c1CCN(Cc1cnc(NCCO)nc1)C2 [Example 44, N-(3-fluoro-5-(trifluoromethyl)phenyl)-6-((2-((2-hydroxyethyl)amino)pyrimidin-5-yl)methyl)-4,5,6,7-tetrahydrothieno[2,3-c]pyridine-3-carboxamide]
DDR1 [1]
  Ki: < 25 nM
DDR1 [2]
  IC50: 25 to 50 nM
DDR2
  Ki: < 25 nM

## Cc1nc(N)ncc1CN1CCc2c(C(=O)Nc3cc(F)cc(C(F)(F)F)c3)csc2C1 [Example 47, 6-((2-amino-4-methylpyrimidin-5-yl)methyl)-N-(3-fluoro-5-(trifluoromethyl)phenyl)-4,5,6,7-tetrahydrothieno[2,3-c]pyridine-3-carboxamide]
DDR1 [1]
  Ki: < 25 nM
DDR1 [2]
  IC50: 50 to 80 nM
DDR2
  Ki: < 25 nM

## CNc1ccc(CN2CCc3c(C(=O)Nc4cc(F)cc(C(F)(F)F)c4)csc3C2)cn1 [Example 48, N-[3-fluoro-5-(trifluoromethyl)phenyl]-6-[[6-(methylamino)-3-pyridyl]methyl]-5,7-dihydro-4H-thieno[2,3-c]pyridine-3-carboxamide]
DDR1 [1]
  Ki: < 25 nM
DDR1 [2]
  IC50: < 25 nM
DDR2
  Ki: < 25 nM

## Cn1cncc1C(=O)N1CCc2c(C(=O)Nc3cc(F)cc(C(F)(F)F)c3)csc2C1 [Example 49, N-(3-fluoro-5-(trifluoromethyl)phenyl)-6-(1-methyl-1H-imidazole-5-carbonyl)-4,5,6,7-tetrahydrothieno[2,3-c]pyridine-3-carboxamide]
DDR1 [1]
  Ki: < 25 nM
DDR1 [2]
  IC50: < 25 nM
DDR2
  Ki: < 25 nM
